In patent US20250041286A1, “CANCER TREATMENT USING KETOTIFEN IN COMBINATION WITH A CHECKPOINT INHIBITOR” (Materia Therapeutics Inc., priority 2021, published 2025):

Experiments:
MCA205 cells = experiment: Re-challenge of long-term survivors with MCA205 cells; assay type: in vivo, mouse; conditions: re-challenge with 2.5×10^5 MCA205 cells s.c., 80 days after resection of primary tumors
Source text: Since doxorubicin has potential to establish favorable immunogenic conditions within the TME, which could affect the efficacy of immunotherapy, it was investigated if this immune response is preserved against rechallenge of long-term survivors with the same cell line. Mice were considered long-term survivors if no tumor was detected 80 days after surgical resection of MCA205 primary tumors. Five long-term survivors from each treatment group were further re-challenged with 2.5×10^5 MCA205 cells injected subcutaneously into the flank region. Cells were prepared in 50 μl of PBS. Naïve mice were implanted in parallel as controls.

MCA205 tumors = experiment: Ketotifen pretreatment with doxorubicin / anti-PD-L1, tumor growth; assay type: in vivo, mouse; conditions: anti-PD-L1 10 mg/kg, doxorubicin 5 mg/kg i.p. days 7, 10, 13, ketotifen 10 mg/kg daily
Source text: Daily ketotifen continued until completion of doxorubicin-anti-PD-L1 combination treatment.

murine MC/9 MCs = experiment: MC/9 - NIH3T3 transwell co-culture, mast cell degranulation by β-hexosaminidase release; assay type: cell-based; conditions: 24 hours treatment, then 30 minute sensitization with C48/80
Description: (§1) Given that both MCs and fibroblasts are present in the TME, the consequences of MC activation on myofibroblasts was explored using a co-culture assay in which murine MC/9 MCs and NIH3T3 myofibroblasts were separated by a transwell chamber with micropores that only allowed chemical communication (FIG. 13A). In this system, degranulation efficiency was determined by measuring the concentration of β-hexosaminidase (β-hex) in the supernatant. MC degranulation was induced through exposure to compound 48/80 (C48/80), which binds to the MRGPRB2 receptor (the orthologue of the human G-protein-coupled receptor MRGPRX2). […] Co-cultures treated with a vehicle control and Triton X-100 were used as internal assay control to evaluate background and maximum β-hex release, respectively. Transforming growth factor (TGF)-β1 was used as a fibroblast activator due to its capacity to induce a myofibroblast phenotype of the NIH3T3 cells. MC/9 cells were cultivated with NIH3T3 cells for 24 hours and then treated with either ketotifen or TGFβ for additional 24 hours in low serum medium, followed by a 30 minute sensitization with C48/80.

NIH3T3 cells = experiment: Myofibroblast differentiation in co-culture, αSMA and collagen I immunofluorescence; assay type: cell-based, murine
Description: as §1
To further explore the MC-fibroblast interaction, the differentiation process of NIH3T3 cells in the co-culture system was monitored by assaying levels of αSMA and collagen I, which are two markers of the myofibroblast phenotype, by immunofluorescence staining (FIG. 13C, FIG. 13D, and FIG. 13E).

Molecule	tumor development after re-challenge (mice out of five long-term survivors per group) (MCA205 cells)	tumor growth (relative growth, tumor mass day 16) (MCA205 tumors)	MC degranulation (β-hex release) (murine MC/9 MCs)	αSMA and collagen I protein expression (NIH3T3 cells; TGFβ alone)	αSMA and collagen I protein expression (NIH3T3 cells; TGFβ together with activated MCs)
COc1cccc2c1C(=O)c1c(O)c3c(c(O)c1C2=O)C[C@@](O)(C(=O)CO)C[C@@H]3O[C@H]1C[C@H](N)[C@H](O)[C@H](C)O1 [doxorubicin]	four mice	Neither anti-PD-L1 nor doxorubicin monotherapies affected tumor growth			
TGFβ: fibroblast activator inducing a myofibroblast phenotype of the NIH3T3 cells			did not affect MC degranulation	no change was observed	significant increase
